PMC12096242 (ACS Omega, 2025)

Target: T1, TcGLIP (MBP-TcGLIP) (Tanacetum cinerariifolium, UniProt H6U1I8)
T1 sequence (H6U1I8 28-365): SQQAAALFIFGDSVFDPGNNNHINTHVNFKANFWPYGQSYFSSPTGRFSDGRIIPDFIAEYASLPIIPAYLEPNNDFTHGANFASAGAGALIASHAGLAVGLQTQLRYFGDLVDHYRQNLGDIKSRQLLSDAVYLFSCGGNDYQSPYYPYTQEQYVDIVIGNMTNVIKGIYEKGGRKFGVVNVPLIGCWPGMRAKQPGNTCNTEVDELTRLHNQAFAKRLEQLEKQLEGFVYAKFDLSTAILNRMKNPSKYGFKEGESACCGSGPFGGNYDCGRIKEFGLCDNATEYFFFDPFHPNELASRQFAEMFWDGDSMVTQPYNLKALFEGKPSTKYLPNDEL
Test: HPLC

Compound	IC50
C=C/C=C\CC1=C(C)[C@@H](O[P@@](=O)(CCCCC)Oc2ccc([N+](=O)[O-])cc2)CC1=O [1a]	23.4 nM
C=C/C=C\CC1=C(C)[C@@H](O[P@](=O)(CCCCC)Oc2ccc([N+](=O)[O-])cc2)CC1=O [1b]	245 nM
C/C=C\CC1=C(C)[C@@H](O[P@@](=O)(CCCCC)Oc2ccc([N+](=O)[O-])cc2)CC1=O [2a, (S)p, (S)c-2-Methyl-4-oxo-3-((Z)-2-buten-1-yl)cyclopent-2-en-1-yl 4-Nitrophenyl n-Pentylphosphonate]	29.5 nM
C/C=C\CC1=C(C)[C@@H](O[P@](=O)(CCCCC)Oc2ccc([N+](=O)[O-])cc2)CC1=O [2b, (R)p, (S)c-2-Methyl-4-oxo-3-((Z)-2-buten-1-yl)cyclopent-2-en-1-yl 4-Nitrophenyl n-Pentylphosphonate]	347 nM
CC/C=C\CC1=C(C)[C@@H](O[P@@](=O)(CCCCC)Oc2ccc([N+](=O)[O-])cc2)CC1=O [3a, (S)p, (S)c-2-Methyl-4-oxo-3-((Z)-2-penten-1-yl)cyclopent-2-en-1-yl 4-Nitrophenyl n-Pentylphosphonate]	40.7 nM
CC/C=C\CC1=C(C)[C@@H](O[P@](=O)(CCCCC)Oc2ccc([N+](=O)[O-])cc2)CC1=O [3b, (R)p, (S)c-2-Methyl-4-oxo-3-((Z)-2-penten-1-yl)cyclopent-2-en-1-yl 4-Nitrophenyl n-Pentylphosphonate]	316 nM
C=C/C=C\CC1=C(C)[C@@H](O[P@@](=O)(CCCCCCCC)Oc2ccc([N+](=O)[O-])cc2)CC1=O [4a]	69.2 nM
C=C/C=C\CC1=C(C)[C@@H](O[P@](=O)(CCCCCCCC)Oc2ccc([N+](=O)[O-])cc2)CC1=O [4b]	14.1 nM
C/C=C\CC1=C(C)[C@@H](O[P@@](=O)(CCCCCCCC)Oc2ccc([N+](=O)[O-])cc2)CC1=O [5a, (S)p, (S) c-2-Methyl-4-oxo-3-((Z)-2-buten-1-yl)cyclopent-2-en-1-yl 4-Nitrophenyl n-Octylphosphonate]	120 nM
C/C=C\CC1=C(C)[C@@H](O[P@](=O)(CCCCCCCC)Oc2ccc([N+](=O)[O-])cc2)CC1=O [5b, (R)p, (S)c-2-Methyl-4-oxo-3-((Z)-2-buten-1-yl)cyclopent-2-en-1-yl 4-Nitrophenyl n-Octylphosphonate]	27.5 nM
CC/C=C\CC1=C(C)[C@@H](O[P@@](=O)(CCCCCCCC)Oc2ccc([N+](=O)[O-])cc2)CC1=O [6a, (S)p, (S)c-2-Methyl-4-oxo-3-((Z)-2-penten-1-yl)cyclopent-2-en-1-yl 4-Nitrophenyl n-Octylphosphonate]	309 nM
CC/C=C\CC1=C(C)[C@@H](O[P@](=O)(CCCCCCCC)Oc2ccc([N+](=O)[O-])cc2)CC1=O [6b, (R)p, (S)c-2-Methyl-4-oxo-3-((Z)-2-penten-1-yl)cyclopent-2-en-1-yl 4-Nitrophenyl n-Octylphosphonate]	38 nM
